# From US10179770B2, “Quinolines derivatives as novel anticancer agents” (GENOSCIENCE PHARMA, priority 2013, dated 2019)
# pEC50: −log10 of the molar value. Counter-ions that a name gives are not always drawn.
# Tests used:
# MOLM-14 [1] = assay: Cell proliferation assay at 10 μM; assay type: cell-based, human; details: Homo sapiens, MOLM-14, 72 h, read-out: Cell viability observed at 10 μM
# Description: (§1) The human melanoma cell line A375 and colorectal carcinoma cell line HCT-116 were cultured in Dulbecco's modified Eagle's medium supplemented with 10% fetal bovine serum and 1% Penicillin-Streptomycin. The human leukemia cell line MOLM-14 was cultured in Minimum Essential Medium Alpha Medium supplemented with 10% Fetal Bovine Serum and 1% Penicillin-Streptomycin. All the cell lines were maintained at 37° C. with 5% CO2.
# For MOLM-14 cell line, which grows in suspension, 30,000 cells were plated onto 96-well plates immediately before the assay.
# (§2) Compounds were added at different concentrations to each well, and cell cultures were incubated for 72 h. Vehicle (DMSO or H2O) was used as a control, and all compounds were tested in a constant percentage of vehicle. Cell outgrowth was measured using for adherent cells CellTiter […] Aqueous One Solution Cell Proliferation Assay (Promega) and for cell suspension, Sulforhodamine B colorimetric assay as described in Vichai et al. (Vichai, V. and Kirtikara, K. Nat. Protoc. 2006 (1) 1112-1116). Absorbance was measured using an Infinite F200 Pro or Sunrise TECAN plate reader.
# (§3) In each experiment, each point represents the average of two replicates in cell culture.
# (§4) Results are presented in Table 1 below for concentrations of 10 μM of tested compounds.
# HepG2 = assay: EC50 determination in cancer cell lines; assay type: cell-based, human; details: Homo sapiens, HepG2, 72 h
# Description: as §2
# (§5) The human melanoma cell line A375, colorectal carcinoma cell line HCT-116, hepatocellular carcinoma cell line HepG2 were cultured in Dulbecco's modified Eagle's medium supplemented with 10% fetal bovine serum and 1% Penicillin-Streptomycin. The human melanoma cell lines SK-MEL-28 and SK-MEL-5 were cultured in Minimum Essential Medium. The colorectal carcinoma cell lines HT-29 and Colo205 were respectively cultured in Mc Coy's and RPMI media. The human leukemia cell lines MV4-11 and KG-1 were cultured in Iscove's Modified Dulbecco's Media. The human leukemia cell line MOLM-14 was cultured in Minimum Essential Medium Alpha Medium supplemented with 10% Fetal Bovine Serum and 1% Penicillin-Streptomycin All culture media were supplemented with 10% fetal bovine serum and 1% Penicillin-Streptomycin except for MV4-11 cell line 20% fetal bovine serum and 1% Penicillin-Streptomycin. All the cell lines were maintained at 37° C. with 5% C02.
# (§6) Briefly, adherent cells, A375, HCT-116, HepG2, SK-MEL-28, SK-MEL-5, HT-29 and Colo205 cells were respectively plated at 800, 5,000, 7,000, 2,500, 3,000-5,000, 5,000 or 5,000 cells per well onto 96-well plates in 90 μL of media per well and were allowed to grow overnight before the assay. For MV4-11 and KG-1 cells that grow in suspension, 40,000-60,000 cells were plated onto 96-well plates immediately before the assay. MOLM-14 cell line, that grow in suspension, 30,000 cells were plated onto 96-well plates immediately before the assay.
# (§7) The cell growth measure was the same as described in example 51.
# (§8) The experimental data are analyzed using a computer program, Graphpad Prism (GraphPad Software, Inc. La Jolla, Calif.) and EC50 values were determined as the dose of compound required to reduce absorbance values to 50% of the signal obtained for vehicle treated cell cultures and were a mean of at least two independent experiments except for EC50 values with (*) where […].
# A-375 = assay: EC50 determination in cancer cell lines; assay type: cell-based, human; details: Homo sapiens, A-375, 72 h
# Description: as §2, §5, §6, §7, §8
# HT-29 = assay: EC50 determination in cancer cell lines; assay type: cell-based; details: Homo sapiens, 72 h, * n>2
# Description: as §2, §5, §6, §7, §8
# MV4-11 = assay: EC50 determination in cancer cell lines; assay type: cell-based; details: Homo sapiens, 72 h
# Description: as §2, §5, §6, §7, §8
# Colo205 = assay: EC50 determination in cancer cell lines; assay type: cell-based; details: Homo sapiens, COLO 205, 72 h, * n>2
# Description: as §2, §5, §6, §7, §8
# KG-1 = assay: EC50 determination in cancer cell lines; assay type: cell-based; details: Homo sapiens, 72 h
# Description: as §2, §5, §6, §7, §8
# SK-MEL-28 = assay: EC50 determination in cancer cell lines; assay type: cell-based; details: Homo sapiens, 72 h
# Description: as §2, §5, §6, §7, §8
# SK-MEL-5 = assay: EC50 determination in cancer cell lines; assay type: cell-based; details: Homo sapiens, 72 h
# Description: as §2, §5, §6, §7, §8
# MOLM-14 [2] = assay: EC50 determination in cancer cell lines; assay type: cell-based; details: Homo sapiens, 72 h
# Description: as §2, §5, §6, §7, §8
# A375 = assay: Cell proliferation assay at 10 μM; assay type: cell-based, human; details: Homo sapiens, A-375, 72 h, read-out: Cell viability observed at 10 μM
# Description: as §1
# (§9) Briefly, adherent cells, A375 and HCT-116 cells were respectively plated at 800 or 5,000 cells per well onto 96-well plates in 90 μL of media per well and were allowed to grow overnight before the assay.
# as §2, §3, §4
# HCT-116 [3] = assay: Cell proliferation assay at 10 μM; assay type: cell-based; details: Homo sapiens, HCT-116, 72 h, read-out: Cell viability observed at 10 μM
# Description: as §1, §9, §2, §3, §4
# HCT-116 [4] = assay: EC50 determination in cancer cell lines; assay type: cell-based, human; details: Homo sapiens, HCT-116, 72 h
# Description: as §2, §5
# Briefly, adherent cells, A375, HCT-116, HepG2, SK-MEL-28, SK-MEL-5, HT-29 and Colo205 cells were respectively plated at 800, 5,000, 7,000, 2,500, 3,000-5,000, 5,000 or 5,000 cells per well onto 96-well plates in 90 μL of media per well and were allowed to grow overnight before the assay. For MV4-11 and KG-1 cells that grow in suspension, 40,000-60,000 cells were plated onto 96-well plates immediately before the assay. MOLM-14 cell line, that grow in suspension, 30,000 cells were plated onto 96-well plates immediately before the assay. […]
# as §8
# [5] = system: patient derived acute myeloid leukemia (AML) cell lines; assay: Cell growth inhibition assay, patient derived AML cells; assay type: cell-based, human; details: Homo sapiens, 48 h
# Description: The patient derived acute myeloid leukemia (AML) cells were obtained after written informed consent under the Institut Paoli Calmette (IPC) institutional review board approval and under the strict compliance of the Helsinki declaration on medical research involving human subjects. […] Each compound was added at different concentrations (combinations of six concentrations) to each well, and cell cultures were incubated for 48 h. Vehicle (H2O) was used as a control, and all compounds were tested in a constant percentage of vehicle. Cell outgrowth was measured using the CellTiter-Glo luminescent cell viability assay as described by the manufacturer (Promega, Ref G7571 Madison, Wis., USA) using a Centro (Berthold, France) plate reader. In each experiment, each point represents the average of triplicates in cell culture. The experimental data are analyzed using a computer program, Graphpad Prism (GraphPad Software, Inc.
# [6] = system: PBMC Healthy voluntary donor; assay: Cell growth inhibition assay, PBMC of healthy donors; assay type: cell-based, human; details: Homo sapiens, PBMC
# Description: Each compound was added at different concentrations (combinations of six concentrations) to each well, and cell cultures were incubated for 48 h. Vehicle (H2O) was used as a control, and all compounds were tested in a constant percentage of vehicle. Cell outgrowth was measured using the CellTiter-Glo luminescent cell viability assay as described by the manufacturer (Promega, Ref G7571 Madison, Wis., USA) using a Centro (Berthold, France) plate reader. In each experiment, each point represents the average of triplicates in cell culture. The experimental data are analyzed using a computer program, Graphpad Prism (GraphPad Software, Inc.
# [7] = Encapsulation efficiency of XIX-2 in PLGA-PLGAPEG nanoparticules (HPLC); assay type: physicochemical
# Description: According to the general procedure described elsewhere (see for example Kumar, K. et al. J. Controlled Release 2013 (171) pp 208-215 and Danhier, F. et al. Int. J. Pharm. 2010 (392) pp 20-28) a nanoparticule PLGA-PLGAPEG (70/30, w/w) formulation of compound XIX-2 was prepared. Briefly, XIX-2 loaded PLGA (L:G 50:50, Mw 7,000-17,000, acid terminated) and PLGA-PEG (L:G 50:50, 15% of PEG, PLGA Mw 28,000; PEG Mw 5,000) nanoparticles were prepared by O/W emulsion-solvent evaporation technique. 35 mg of PLGA polymer and 15 mg of PLGA-PEG polymer was dissolved in 1 ml of a solution of XIX-2 in dichloromethane (10 mg/ml) and vortexed to obtain a uniform PLGA-PLGAPEG solution. Then, 2 ml of a 1% sodium cholate aqueous solution was added and the resulting biphasic system was sonicated (Branson sonifier, USA) at 70 W for 15 s. This emulsion was added dropwise to 100 ml of a 1% sodium cholate aqueous solution at 37° C. and stirred at 600 rpm for 1 h. The nanoparticle suspension was then washed twice in distilled water by centrifugation (Avanti-JE centrifuge, Beckman coulter, USA) for 60 min at 10,000 t·min^−1 and 4° C. Supernatants were collected to evaluate encapsulation efficiency of XIX-2. Empty nanoparticles were prepared with the same procedure except the addition of XIX-2 during the preparation of the formulation. The particles can be stored in solution at +4° C. or then freeze dried (Labconco, USA) and stored at 4° C. until further use.
# Encapsulation efficiency estimated the amount of XIX-2 encapsulated in PLGA-PLGAPEG nanoparticules. Supernatants were used to measure the non-encapsulated XIX-2. Nanoparticules were dissolved in 1 ml of mobile phase to evaluate the encapsulated XIX-2. An HPLC system (Waters Breeze) with a diode array detector and multiple wavelength detector was used for the quantification of XIX-2 in supernatants and nanoparticles. […]
# The coefficients of variation (CV) for intra- and inter-assay measurements were within 5%. The encapsulation efficiency of XIX-2 is given by [XIX-2 used−XIX-2 non-encapsulated)/XIX-2 used]×100 and XIX-2 recovery was calculated.
# B16F10 = assay: CellTiter-Glo cell viability assay (example 57); assay type: cell-based, human; details: Mus musculus, B16-F10; B16F10 (Melanoma); Cell Titer-Glo; 72 h
SMILES,viability at 10 µM (MOLM-14 [1]) [%],pEC50 (HepG2),pEC50 (A-375),pEC50 (HT-29),pEC50 (MV4-11),pEC50 (Colo205),pEC50 (KG-1),pEC50 (SK-MEL-28),pEC50 (SK-MEL-5),pEC50 (MOLM-14 [2]),viability at 10 µM (A375) [%],viability at 10 µM (HCT-116 [3]) [%],pEC50 (HCT-116 [4]),also measured
"Clc1ccc2c(NC3CCN(Cc4ccccc4)CC3)cc(-c3ccccc3)nc2c1 [XXVIII-2, 7-chloro-2-phenyl-4-[(N-benzylpiperidin-4-yl)-amino]quinoline hydrochloride salt]",< 20,4.59,5.05,4.89,5.30,5.05,5.00,5.15,5.05,5.00,< 20,< 20,4.92,
"CC(C)(C)NC1CCN(c2cc(-c3ccc(Cl)c(Cl)c3)nc3ccccc23)CC1 [XIV-8, 2-(3,4-dichloro-phenyl)-4-(4-N-tert-butylamino-piperidin-1-yl)quinoline dihydrochloride]",< 20,,5.22,,5.40,,5.40,5.40,5.22,5.30,< 20,< 20,5.30,"pEC50 ([5]; Patient 3, subtype Tri8): 5.10; pEC50 ([5]; Patient 8, subtype FLT3−): 4.60; pEC50 ([5]; Patient 9, subtype FLT3+): 4.40; pEC50 ([5]; Patient 10, subtype Inv 3): 4.70; pEC50 ([5]; Patient 12, subtype 5 & 7): < 4.40; pEC50 ([5]; Patient 13, subtype MLL): < 4.40; pEC50 ([5]; Patient 16, subtype Inv 3): 4.77; pEC50 ([6]; PBMC Healthy voluntary donor 1): 4.51; pEC50 ([6]; PBMC Healthy voluntary donor 2): 4.85"
"Clc1ccc2c(CNC3CCN(Cc4ccccc4)CC3)cc(-c3ccccc3)nc2c1 [XXXIII-2, 7-chloro-2-phenyl-4-[(N-benzyl-piperidin-4-yl)aminomethyl]quinoline hydrochloride salt]",40 to 60,4.80,5.05,4.85,5.30,5.05,5.10,5.22,5.22,5.05,40 to 60,20 to 40,4.89,
"CCN(CC)C1CCN(C(C)c2cc(-c3ccccc3)nc3ccccc23)CC1 (stereo not shown) [XIX-2, 2-phenyl-4-{1-[4-(N,N-diethylamino)-piperidin-1-yl]-eth-1-yl}quinoline]",,,,,,,,,,,,,,"Concentration of XIX-2 in nanoparticules dispersion ([7]; PLGA-PLGAPEG (70/30, w/w) nanoparticules, HPLC): 3210 µM; Loading ([7]; PLGA-PLGAPEG nanoparticules, [XIX-2 encapsulated/PLGA-PLGAPEG used] × 100): 2.5%; Encapsulation efficiency ([7]; PLGA-PLGAPEG nanoparticules; [XIX-2 used − XIX-2 nonencapsulated)/XIX-2 used] × 100): 9.4%"
"COc1cccc2c1C(=O)c1c(O)c3c(c(O)c1C2=O)C[C@@](O)(C(=O)CO)C[C@@H]3O[C@H]1C[C@H](N)[C@H](O)[C@H](C)O1 [Doxorubicine, doxorubicin]",,,,,,,,,,,,,,pEC50 (B16F10): 6.70
